Experimental data as given in ChEMBL document CHEMBL3808384, “Synthesis of new tricyclic thiolactams as potent antitumor agent for pancreatic cancer” (Bioorg Med Chem Lett, 2016).

Legend:
[1] = Cytotoxicity against human PANC1 cells at 30 uM cultured in dulbecco's modified eagle's medium; type: functional; settings: PANC-1
[2] = Cytotoxicity against human PANC1 cells at 30 uM cultured in nutrient-deprived medium; type: functional; settings: PANC-1
[3] = Cytotoxicity against human PANC1 cells cultured in nutrient-deprived medium; type: functional, PANC-1
[4] = Antitumor activity against human MIAPaCa2 cells xenografted in BALB/cAJcl-nu/nu mouse assessed as tumor volume at 8.02 mg/kg, ip measured every fourth day (reference value: 1917.6 +/- 280.3 mm3); type: functional, MIA PaCa-2
[5] = Antitumor activity against human MIAPaCa2 cells xenografted in BALB/cAJcl-nu/nu mouse assessed as reduction in tumor volume at 8.02 mg/kg, ip measured every fourth day relative to control; type: functional, MIA PaCa-2
[6] = system: Mus musculus; assay: Toxicity in BALB/cAJcl-nu/nu mouse xenografted with human MIAPaCa2 cells assessed as body weight loss at 8.02 mg/kg, ip measured every fifth day; type: organism-based, MIA PaCa-2; settings: in vivo
[7] = Cytotoxicity against human PANC1 cells cultured in dulbecco's modified eagle's medium; type: functional, PANC-1
[8] = Antitumor activity against human MIAPaCa2 cells xenografted in BALB/cAJcl-nu/nu mouse assessed as tumor volume at 7.5 mg/kg, ip measured every fourth day (reference value: 1917.6 +/- 280.3 mm3); type: functional, MIA PaCa-2
[9] = Antitumor activity against human MIAPaCa2 cells xenografted in BALB/cAJcl-nu/nu mouse assessed as reduction in tumor volume at 7.5 mg/kg, ip measured every fourth day relative to control; type: functional, MIA PaCa-2
[10] = system: Mus musculus; assay: Toxicity in BALB/cAJcl-nu/nu mouse xenografted with human MIAPaCa2 cells assessed as body weight loss at 7.5 mg/kg, ip measured every fifth day; type: organism-based, MIA PaCa-2; settings: in vivo

| SMILES | inhibition at 30 µM [1] [%] | PC50 [3] [µM] | further results |
| --- | --- | --- | --- |
| S=C1c2c(c3ccccc3n2Cc2ccccc2)CCN1Cc1ccccc1 | < 50 |  | inhibition at 30 µM [2]: < 50% |
| Oc1cccc(Cn2c3c(c4ccccc42)CCN(Cc2ccccc2)C3=S)c1 | < 50 | 1.96 | Activity [4]: 1203.9 mm3; fold change (FC) [5]: 1.6; Activity [6]: Non-toxic |
| O=C1c2c(c3ccccc3n2Cc2cccc(O)c2)CCN1Cc1ccccc1 |  | 44.8 |  |
| Fc1ccc(Cn2c3c(c4ccccc42)CCN(Cc2ccccc2)C3=S)cc1 |  |  | PC50 [7]: 152.6 µM; inhibition at 30 µM [2]: < 50% |
| Oc1cc(O)cc(Cn2c3c(c4ccccc42)CCN(Cc2ccccc2)C3=S)c1 | < 50 | 4.81 |  |
| Oc1ccc(Cn2c3c(c4ccccc42)CCN(Cc2ccccc2)C3=S)cc1 |  | 1.68 | PC50 [7]: 20 µM |
| Oc1ccc(Cn2c3c(c4ccccc42)CCN(Cc2ccccc2)C3=S)cc1O | < 50 | 4.56 |  |
| S=C1c2c(c3ccccc3n2Cc2ccc(Cl)cc2)CCN1Cc1ccccc1 | < 50 |  | inhibition at 30 µM [2]: < 50% |
| COc1ccc(Cn2c3c(c4ccccc42)CCN(Cc2ccccc2)C3=S)cc1O | < 50 | 7.07 |  |
| COc1ccc(Cn2c3c(c4ccccc42)CCN(Cc2ccccc2)C3=S)cc1 | < 50 |  | inhibition at 30 µM [2]: < 50% |
| Oc1ccccc1Cn1c2c(c3ccccc31)CCN(Cc1ccccc1)C2=S | < 50 | 2.23 |  |
| Oc1cccc(Cn2ccc3ccccc32)c1 |  | 173.7 |  |
| COc1cc(O)cc(Cn2c3c(c4ccccc42)CCN(Cc2ccccc2)C3=S)c1 | < 50 | 4.2 |  |
| O=C1OCCc2c1n(Cc1cccc(O)c1)c1ccccc21 |  | 131.7 |  |
| COc1cc(Cn2c3c(c4ccccc42)CCN(Cc2ccccc2)C3=S)ccc1O |  | 2.54 | PC50 [7]: 8.15 µM |
| COc1cc(C[C@H]2C(=O)OC[C@@H]2Cc2ccc(OC)c(OC)c2)ccc1O [ARCTIGENIN] | < 50 | 1.27 | Activity [8]: 856.8 mm3; fold change (FC) [9]: 2.2; Activity [10]: Non-toxic |
